# Results reported in patent publication US5624923A, “Tricyclic diazepine vasopressin antagonists and oxytocin antagonists” (priority 1995, dated 1997).
# pIC50: −log10 of the molar value.
# How the values were obtained:
# [1] = target: T1, Rat Kidney Medullary V2 Receptors (Rattus norvegicus, UniProt Q00788); assay: Binding Assay to Rat Kidney Medullary V2 Receptors; conditions: for pIC50: rat kidney medulla membranes, read-out: V2 IC50
# T1 construct: Medullary tissues from rat kidneys are dissected out; from tissue; host or cells: rat kidney medulla membranes
# T1 sequence (Q00788 whole entry): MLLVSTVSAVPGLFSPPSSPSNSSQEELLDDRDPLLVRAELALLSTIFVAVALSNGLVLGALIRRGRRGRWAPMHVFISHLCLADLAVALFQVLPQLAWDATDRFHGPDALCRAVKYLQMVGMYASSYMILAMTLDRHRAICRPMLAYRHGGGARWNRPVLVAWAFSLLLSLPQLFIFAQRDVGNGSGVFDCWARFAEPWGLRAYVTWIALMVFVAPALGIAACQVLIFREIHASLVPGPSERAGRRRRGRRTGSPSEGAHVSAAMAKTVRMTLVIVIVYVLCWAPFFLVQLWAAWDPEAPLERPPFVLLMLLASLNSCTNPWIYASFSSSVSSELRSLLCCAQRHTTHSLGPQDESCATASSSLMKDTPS
# Summary of the method: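 Membranes were prepared from rat kidney medulla and stored in 50.0 mM Tris-HCl pH 7.4 with 0.2% BSA and 0.1 mM PMSF. Radioligand competition ran 120 min at bench temperature, with 1.0 μM unlabeled ligand defining nonspecific binding. Compounds were added in 50% DMSO; filtration, tritium scintillation counting, IC50 from competition analysis.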
# [2] = tested on: Vasopressin V1; assay: Vasopressin V1 Antagonist Activity in Conscious Rats (vasopressin vasopressor response); assay type: in vivo, rat; parameters: Average Change: unit not given here; conditions: for % Inhibition / Average Change: SHR
# Summary of the method: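 Conscious rats are restrained supine, and under local 2% procaine a PE 10/20 cannula is passed through the ventral caudal tail artery into the lower abdominal aorta. The caudal vein is cannulated for intravenous dosing. Blood pressure is recorded with a Statham P23Db transducer, and vasopressin injections are repeated after compound dosing. Percent antagonism is calculated against the pre-drug vasopressor response taken as 100%.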
# [3] = tested on: Vasopressin V2; assay: Vasopressin V2 Antagonist Activity in Conscious Hydrated Rats; assay type: in vivo, rat; conditions: AVP 0.4 μg/kg i.p.
# Summary of the method: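 Four-hour urine output, osmolality and electrolytes (Na+, K+, Cl−) recorded in water-loaded rats (30 mL/kg deionized water orally) given AVP i.p. at 0.4 μg/kg. Test compounds were given orally at 0.1–100 mg/kg 1 h before AVP; 2–4 rats per compound.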
# [4] = 10 mg/kg i.v., VAS 0.01 i.u./kg, 30 min
# [5] = 10 mg/kg i.v., VAS 0.01 i.u./kg, 60 min
# [6] = 10 mg/kg i.v., VAS 0.01 i.u./kg, 90 min
# [7] = 10 mg/kg i.v., VAS 0.01 i.u./kg, 120 min
# [8] = 10 mg/kg i.v., VAS 0.01 i.u./kg, 180 min
# [9] = 10 mg/kg i.v., VAS 0.01 i.u./kg, 240 min
# [10] = 10 mg/kg i.v., VAS 0.01 i.u./kg, 300 min
# [11] = 10 mg/kg i.v., VAS 0.02 i.u./kg, 30 min
# [12] = 10 mg/kg i.v., VAS 0.02 i.u./kg, 60 min
# [13] = 10 mg/kg i.v., VAS 0.02 i.u./kg, 90 min
# [14] = 10 mg/kg i.v., VAS 0.02 i.u./kg, 120 min
# [15] = 10 mg/kg i.v., VAS 0.02 i.u./kg, 180 min
# [16] = 10 mg/kg i.v., VAS 0.02 i.u./kg, 240 min
# [17] = 10 mg/kg i.v., VAS 0.02 i.u./kg, 300 min
structure (smiles),measurement,setting,value
"O=C(Nc1ccc(C(=O)N2Cc3cccn3-c3ccccc32)cc1)c1ccc(Cl)cc1Cl [Example 17, N-[4-(pyrrolo(1,2-a]quinoxalin-5(4H)-ylcarbonyl)phenyl]-2,4-dichloro-benzamide]",pIC50,[1],6.96
same,Max. % Inhibition,[2]; 30 mg/kg i.v.,50%
same,Time (of max. % inhibition),[2]; 30 mg/kg i.v.,60 min
same,Osmolality,[3]; 30 mg/kg orally,1374 mOsm/kg
same,Urine Volume,[3]; 30 mg/kg orally,4.1 ml/4 hrs
"O=C(Nc1ccc(C(=O)N2Cc3cccn3Cc3sccc32)cc1)c1ccc(Cl)cc1Cl [Example 274, N-(4-(5H-pyrrolo[1,2-a]thieno-[3,2-e][1,4]diazepin-4(10H)-ylcarbonyl)phenyl]-2,4-dichloro-benzamide]",Max. % Inhibition,[2]; 10 mg/kg i.v.,59%
same,Time (of max. % inhibition),[2]; 10 mg/kg i.v.,300 min
same,Osmolality,[3]; 10 mg/kg orally,1177 mOsm/kg
same,Urine Volume,[3]; 10 mg/kg orally,3 ml/4 hrs
"O=C(Nc1ccc(C(=O)N2Cc3cccn3Cc3ccccc32)c(Cl)c1)c1ccccc1C(F)(F)F [Example 528, N-[4-(5H-pyrrolo[2,1-c][1,4]benzodiazepin-10(11H)-ylcarbonyl]-3-chlorophenyl]-2-(trifluoromethyl)benzamide]",Max. % Inhibition,[2]; 30 mg/kg i.v.,66%
same,Time (of max. % inhibition),[2]; 30 mg/kg i.v.,300 min
same,Osmolality,[3]; 10 mg/kg orally,647 mOsm/kg
same,Urine Volume,[3]; 10 mg/kg orally,11.3 ml/4 hrs
"CN(C)CN(C(=O)c1ccc(Cl)cc1Cl)c1ccc(C(=O)N2Cc3cccn3Cc3ccccc32)cc1 [Example 490, N-[(Dimethylamino)methyl]-N-[4-(5H-pyrrolo[2,1-c][1,4]benzodiazepin-10(11H)-ylcarbonyl)phenyl]-2,4-dichlorobenzamide]",pIC50,[1],8.30
same,Max. % Inhibition,[2]; 10 mg/kg i.v.,74%
same,Time (of max. % inhibition),[2]; 10 mg/kg i.v.,90 min
same,Max. % Inhibition,[2]; 10 mg/kg p.o.,65%
same,Time (of max. % inhibition),[2]; 10 mg/kg p.o.,120 min
same,Osmolality,[3]; 10 mg/kg orally,487 ± 38 mOsm/kg
same,Urine Volume,[3]; 10 mg/kg orally,71.5 ± 1.6 ml/4 hrs
"Cc1cccc(C(=O)Nc2ccc(C(=O)N3Cc4cccn4Cc4ccccc43)c(Cl)c2)c1C [Example 525, N-[4-(5H-pyrrolo[2,1-c][1,4]benzodiazepin-10(11H)-ylcarbonyl]-3-chlorophenyl]-2,3-dimethylbenzamide]",Max. % Inhibition,[2]; 30 mg/kg i.v.,70%
same,Time (of max. % inhibition),[2]; 30 mg/kg i.v.,60 min
same,Osmolality,[3]; 10 mg/kg orally,557 mOsm/kg
same,Urine Volume,[3]; 10 mg/kg orally,13 ml/4 hrs
COC(=O)c1ccc2n1Cc1ccccc1N(C(=O)c1ccc(NC(=O)c3ccc(Cl)cc3Cl)cc1)C2 [Example 593],pIC50,[1],7.38
same,Max. % Inhibition,[2]; 30 mg/kg i.v.,67%
same,Time (of max. % inhibition),[2]; 30 mg/kg i.v.,60 min
same,Osmolality,[3]; 10 mg/kg orally,577 mOsm/kg
same,Urine Volume,[3]; 10 mg/kg orally,11.8 ml/4 hrs
Cc1ccccc1C(=O)Nc1c(C)cc(C(=O)N2Cc3cccn3Cc3ccccc32)cc1C [Example 472],inhibition at 10 µM,"[1]; 10 μM, rat",22%
same,Max. % Inhibition,[2]; 30 mg/kg i.v.,36%
same,Time (of max. % inhibition),[2]; 30 mg/kg i.v.,90 min
same,Osmolality,[3]; 10 mg/kg orally,1453 mOsm/kg
same,Urine Volume,[3]; 10 mg/kg orally,4.3 ml/4 hrs
"O=C(Nc1ccc(C(=O)N2Cc3cccn3Cc3ccccc32)c(Cl)c1)c1ccc(F)cc1Cl [Example 527, N-[4-(5H-pyrrolo[2,1-c][1,4]benzodiazepin-10(11H)-ylcarbonyl]-3-chlorophenyl]-4-fluoro-2-chlorobenzamide]",Max. % Inhibition,[2]; 30 mg/kg i.v.,85%
same,Time (of max. % inhibition),[2]; 30 mg/kg i.v.,180 min
same,Osmolality,[3]; 10 mg/kg orally,430 mOsm/kg
same,Urine Volume,[3]; 10 mg/kg orally,19.5 ml/4 hrs
"Cc1ccccc1CC(=O)Nc1ccc(C(=O)N2Cc3cccn3Cc3ccccc32)cc1 [Example 93, N-[4(5H-Pyrrolo[2,1-c][1,4]benzodiazepin-10(11H)-ylcarbonyl)phenyl]-2-methylbenzeneacetamide]",pIC50,[1],9.15
same,% Inhibition,[2]; [4],96%
same,Average Change,[2]; [4],2
same,% Inhibition,[2]; [5],94%
same,Average Change,[2]; [5],3
same,% Inhibition,[2]; [6],90%
same,Average Change,[2]; [6],5
same,% Inhibition,[2]; [7],88%
same,Average Change,[2]; [7],6
same,% Inhibition,[2]; [8],73%
same,Average Change,[2]; [8],13.5
same,% Inhibition,[2]; [9],74%
same,Average Change,[2]; [9],13
same,% Inhibition,[2]; [10],76%
same,Average Change,[2]; [10],12
same,% Inhibition,[2]; [11],94%
same,Average Change,[2]; [11],4.5
same,% Inhibition,[2]; [12],92%
same,Average Change,[2]; [12],5.5
same,% Inhibition,[2]; [13],90%
same,Average Change,[2]; [13],7
same,% Inhibition,[2]; [14],90%
same,Average Change,[2]; [14],7
same,% Inhibition,[2]; [15],78%
same,Average Change,[2]; [15],15.5
same,% Inhibition,[2]; [16],76%
same,Average Change,[2]; [16],17
same,% Inhibition,[2]; [17],74%
same,Average Change,[2]; [17],18.5
"Cc1c(F)cccc1C(=O)Nc1ccc(C(=O)N2Cc3cccn3Cc3ccccc32)c(Cl)c1 [Example 481, N-[4-(5H-pyrrolo[2,1-c][1,4]benzodiazepin-10(11H)-ylcarbonyl)-3-chlorophenyl]-3-fluoro-2-methylbenzamide]",pIC50,[1],8.47
same,Max. % Inhibition,[2]; 30 mg/kg p.o.,58%
same,Time (of max. % inhibition),[2]; 30 mg/kg p.o.,80 min
same,Osmolality,[3]; 10 mg/kg orally,473 mOsm/kg
same,Urine Volume,[3]; 10 mg/kg orally,17.2 ml/4 hrs
NC(=O)CNC(C(=O)Nc1ccc(C(=O)N2Cc3cccn3Cc3ccccc32)cc1)c1ccccc1 (stereo not drawn) [Example 585],pIC50,[1],7.08
same,Max. % Inhibition,[2]; 10 mg/kg i.v.,56%
same,Time (of max. % inhibition),[2]; 10 mg/kg i.v.,30 min
same,Osmolality,[3]; 10 mg/kg orally,1483 mOsm/kg
same,Urine Volume,[3]; 10 mg/kg orally,3.3 ml/4 hrs
"Cc1ccc(F)cc1C(=O)Nc1ccc(C(=O)N2Cc3cccn3Cc3ccccc32)c(Cl)c1 [Example 482, N-[4-(5H-pyrrolo[2,1-c][1,4]benzodiazepin-10(11H)-ylcarbony)-3-chlorophenyl]-5-fluoro-2-methylbenzamide]",pIC50,[1],8.64
same,Max. % Inhibition,[2]; 10 mg/kg i.v.,40%
same,Time (of max. % inhibition),[2]; 10 mg/kg i.v.,60 min
same,Osmolality,[3]; 10 mg/kg orally,372 ± 17 mOsm/kg
same,Urine Volume,[3]; 10 mg/kg orally,22 ± 0.9 ml/4 hrs
"O=C(Nc1ccc(C(=O)N2Cc3cccn3Cc3ccccc32)cc1)C(O)c1ccccc1 (racemic) [Example 588, (±) α-Hydroxy-N-[4-(5H-pyrrolo[2,1c][1,4]benzodiazepin-10(11H)-ylcarbonyl)phenyl]benzeneacetamide]",pIC50,[1],7.92
same,Max. % Inhibition,[2]; 10 mg/kg i.v.,65%
same,Time (of max. % inhibition),[2]; 10 mg/kg i.v.,90 min
same,Max. % Inhibition,[2]; 30 mg/kg p.o.,80%
same,Time (of max. % inhibition),[2]; 30 mg/kg p.o.,120 min
same,Osmolality,[3]; 10 mg/kg orally,687 mOsm/kg
same,Urine Volume,[3]; 10 mg/kg orally,9.5 ml/4 hrs
"CSc1ccccc1C(=O)Nc1ccc(C(=O)N2Cc3cccn3Cc3ccccc32)cc1 [Example 85, N-[4-(5H-Pyrrolo[2,1-c][1,4]benzodiazepin-10(11H)-ylcarbonyl)phenyl]-2-(methylthio)benzamide]",pIC50,[1],7.89
same,% Inhibition,[2]; [4],83%
same,Average Change,[2]; [4],4.5
same,% Inhibition,[2]; [5],74%
same,Average Change,[2]; [5],7
same,% Inhibition,[2]; [6],64%
same,Average Change,[2]; [6],9.5
same,% Inhibition,[2]; [7],66%
same,Average Change,[2]; [7],9
same,% Inhibition,[2]; [8],42%
same,Average Change,[2]; [8],15.5
same,% Inhibition,[2]; [9],55%
same,Average Change,[2]; [9],12
same,% Inhibition,[2]; [10],5%
same,Average Change,[2]; [10],12
same,% Inhibition,[2]; [11],75%
same,Average Change,[2]; [11],9
same,% Inhibition,[2]; [12],73%
same,Average Change,[2]; [12],9.5
same,% Inhibition,[2]; [13],79%
same,Average Change,[2]; [13],7.5
same,% Inhibition,[2]; [14],82%
same,Average Change,[2]; [14],6.5
same,% Inhibition,[2]; [15],45%
same,Average Change,[2]; [15],19.5
same,% Inhibition,[2]; [16],49%
same,Average Change,[2]; [16],18
same,% Inhibition,[2]; [17],49%
same,Average Change,[2]; [17],18
"COc1cc(C(=O)N2Cc3cccn3Cc3ccccc32)ccc1NC(=O)c1ccccc1C [Example 477, N-[4-(5H-pyrrolo[2,1-c][1,4]benzodiazepin-10(11H)-ylcarbonyl)-2-methoxy-phenyl]-2-methylbenzamide]",Max. % Inhibition,[2]; 10 mg/kg i.v.,88%
same,Time (of max. % inhibition),[2]; 10 mg/kg i.v.,180 min
same,Max. % Inhibition,[2]; 30 mg/kg p.o.,82%
same,Time (of max. % inhibition),[2]; 30 mg/kg p.o.,30 min
same,Osmolality,[3]; 10 mg/kg orally,701 mOsm/kg
same,Urine Volume,[3]; 10 mg/kg orally,5.3 ml/4 hrs
"O=C(Nc1ccc(C(=O)N2Cc3cccn3Cc3ccccc32)cc1)c1cc([N+](=O)[O-])ccc1Cl [Example 480, N-[4-(5H-pyrrolo[2,1-c][1,4]benzodiazepin-10(11H)-ylcarbonyl)phenyl]-2-chloro-5-nitrobenzamide]",Max. % Inhibition,[2]; 10 mg/kg i.v.,29%
same,Time (of max. % inhibition),[2]; 10 mg/kg i.v.,300 min
same,Osmolality,[3]; 10 mg/kg orally,827 mOsm/kg
same,Urine Volume,[3]; 10 mg/kg orally,8.8 ml/4 hrs
"COc1cc(C(=O)N2Cc3cccn3Cc3ccccc32)ccc1NC(=O)c1ccc(Cl)cc1Cl [Example 478, N-[4-(5H-pyrrolo[2,1-c][1,4]benzodiazepin-10(11H)-ylcarbonyl)-2-methoxy-phenyl]-2,4-dichlorobenzamide]",Max. % Inhibition,[2]; 10 mg/kg i.v.,76%
same,Time (of max. % inhibition),[2]; 10 mg/kg i.v.,120 min
same,Osmolality,[3]; 10 mg/kg orally,1399 mOsm/kg
same,Urine Volume,[3]; 10 mg/kg orally,3 ml/4 hrs
